According to patent US20240216317A1, “COMPOSITION FOR PREVENTING, AMELIORATING OR TREATING INFLAMMATORY BOWEL DISEASE COMPRISING COMPOUND ISOLATED FROM ISODON EXCISUS AS EFFECTIVE COMPONENT” (HEALINNOLS INC., priority 2022, published 2024):

System: ZO-1
Assay: Immunofluorescence microscopy of tight junction-related protein ZO-1 in intestinal epithelial wall model (DSS-treated Caco-2)
Format: cell-based, human
Settings: 3% DSS, 24 hours; Chemical formula 1 0.3, 1 or 3 μM; 5-ASA 500 μM; FIG. 2
Description: Caco-2 cell line (human intestinal epithelial cell line) and RAW 264.7 cell line, which is macrophage cells derived from mouse, were cultured at 37° C., 5% CO2 conditions by using DMEM (Dulbecco's Modified Eagle Medium, #11995065, Gibco) containing 10% FBS (fetal bovine serum, #16000044, Gibco) and 1% streptomycin/penicillin (#15140122, Gibco). For culturing the cells, the medium exchange was carried out every 2 to 3 days, and, once the cells are grown to the level of 80% in cell culture dish (#353003, Falcon), they were maintained by subculture.
The Caco-2 cells were adjusted to have density of 2×10^5 cells/ml. Suspension of the cells (0.5 ml) was aliquoted in apical side membrane phase of a transwell insert 12-well plate. To the basolateral side phase, 1.5 ml of culture medium were added. While replacing the medium with fresh one, once per 2 or 3 days, culture was continued for 21 days approximately, i.e., till to have cell division and suitable TEER (transepithelial electrical resistance) value of monolayer. […]
Thereafter, the cells were washed 3 times with 1×PBS for 5 minutes and treated for 5 minutes with Hoechst 33342 for staining the nucleus. […] After the mounting with ProLong™ Gold Antifade reagent, it was examined by confocal fluorescence microscopy.

SMILES	expression amount of ZO-1 compared to DSS model group
COC(=O)C[C@H](OC(=O)/C=C/c1ccc(O)c(O)c1)c1ccc(O)c(O)c1 [Compound 1, 3-[3,4-dihydroxyphenyl]acrylic acid 1-[3,4-dihydroxyphenyl]-2-methoxycarbonylethyl ester]	statistically significantly higher
Nc1ccc(O)c(C(=O)O)c1 [Compound 5-ASA, 5-aminosalicylic acid, reference compound]	statistically significantly higher
